Laboratory results taken from the supplement of paper PMC10307832.

What was measured:
Test in all cases: relative viability (nuclei count vs DMSO), 5 days (fraction); higher = more cells survive
TGX 221 + Linsitinib = compound: CC1=CN2C(=O)C=C(N=C2C(=C1)C(C)NC3=CC=CC=C3)N4CCOCC4 [TGX 221] + C[C@]1(O)C[C@@H](c2nc(-c3ccc4ccc(-c5ccccc5)nc4c3)c3c(N)nccn32)C1 [Linsitinib] (partner 1 µM)
Method in brief: (§1)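 Lung cancer cell lines in 1536-well plates were dosed by pin tool the day after seeding, either with one drug alone or with a fixed anchor-drug dose plus five library-drug doses (not always all listed) in √10 steps. After 5 days, cells were fixed and their nuclei stained in one step (final 0.05% Triton X-100, 1% formaldehyde, 1 ug/ml Hoechst), then counted on 4× images. Relative viability is the nuclei count in treated wells divided by that in vehicle wells. Values are medians of duplicate plates.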

[1] = compound: C1=CC=C(C(=C1)C2=CC=C(C=C2)C3=CSC4=C3C(=C(C(=O)N4)C#N)O)O + CC1(C)CCC(c2ccc(Cl)cc2)=C(CN2CCN(c3ccc(C(=O)NS(=O)(=O)c4ccc(N[C@H](CCN5CCOCC5)CSc5ccccc5)c(S(=O)(=O)C(F)(F)F)c4)cc3)CC2)C1 [Navitoclax] (partner 0.5 µM)
Method in brief: as §1

TGX 221 + Bortezomib = compound: CC1=CN2C(=O)C=C(N=C2C(=C1)C(C)NC3=CC=CC=C3)N4CCOCC4 [TGX 221] + CC(C)C[C@H](NC(=O)[C@H](Cc1ccccc1)NC(=O)c1cnccn1)B(O)O [Bortezomib] (partner 0.002 µM)
Method in brief: as §1

[2] = compound: C1=CC=C(C(=C1)C2=CC=C(C=C2)C3=CSC4=C3C(=C(C(=O)N4)C#N)O)O + CS(=O)(=O)CCNCc1ccc(-c2ccc3ncnc(Nc4ccc(OCc5cccc(F)c5)c(Cl)c4)c3c2)o1 [Lapatinib] (partner 2 µM)
Method in brief: as §1

| Cell Line | relative viability (TGX 221 + Linsitinib; first compound 0.08 µM) | relative viability (TGX 221 + Linsitinib; first compound 0.253 µM) | relative viability (TGX 221 + Linsitinib; first compound 0.8 µM) | relative viability (TGX 221 + Linsitinib; first compound 2.53 µM) | relative viability (TGX 221 + Linsitinib; first compound 8 µM) | relative viability ([1]; first compound 0.08 µM) | relative viability ([1]; first compound 0.253 µM) | relative viability ([1]; first compound 0.8 µM) | relative viability ([1]; first compound 2.53 µM) | relative viability ([1]; first compound 8 µM) | relative viability (TGX 221 + Bortezomib; first compound 0.08 µM) | relative viability (TGX 221 + Bortezomib; first compound 0.253 µM) | relative viability (TGX 221 + Bortezomib; first compound 0.8 µM) | relative viability (TGX 221 + Bortezomib; first compound 2.53 µM) | relative viability (TGX 221 + Bortezomib; first compound 8 µM) | relative viability ([2]; first compound 0.08 µM) | relative viability ([2]; first compound 0.253 µM) | relative viability ([2]; first compound 0.8 µM) | relative viability ([2]; first compound 2.53 µM) | relative viability ([2]; first compound 8 µM) |
| --- | --- | --- | --- | --- | --- | --- | --- | --- | --- | --- | --- | --- | --- | --- | --- | --- | --- | --- | --- | --- |
| H3255 | 0.841 | 0.847 | 0.892 | 0.912 | 0.859 | 0.534 | 0.431 | 0.53 | 0.602 | 0.444 | 0.685 | 0.732 | 0.792 | 0.776 | 0.708 | 0.231 | 0.292 | 0.231 | 0.235 | 0.25 |
| EPLC-272H | 0.973 | 1.12 | 1.02 |  | 1.24 |  | 1.11 | 1.17 | 1.12 | 0.744 | 0.966 | 0.879 | 0.893 |  | 1 |  | 0.924 | 0.849 | 0.897 | 1.01 |
| NCI-H1734 | 0.801 | 0.747 | 0.802 | 0.647 | 0.616 | 0.793 | 0.979 | 0.886 | 0.972 | 0.492 | 0.876 | 0.893 | 0.853 | 0.779 | 0.823 | 1.09 | 1.05 | 1.16 | 1.01 | 0.887 |
| NCI-H2087 | 1.07 | 1.05 | 1.16 | 1.03 | 0.94 | 1.02 | 1.05 | 1.1 | 1.15 | 0.994 | 0.832 | 0.759 | 0.916 | 0.956 | 1.06 | 1.05 | 1.11 | 1.01 | 1.19 | 1.04 |
| NCI-H1666 | 0.635 | 0.597 | 0.676 | 0.59 | 0.526 | 0.946 | 1.03 | 0.876 | 0.944 | 0.879 | 0.771 | 0.723 | 0.872 | 0.648 | 0.764 | 0.667 | 0.826 | 0.577 | 0.427 | 0.59 |
| NCI-H1915 | 1.02 | 1.12 | 1.16 | 1.11 | 1.04 | 0.811 | 0.769 | 0.83 | 0.826 | 0.771 | 0.897 | 0.963 | 1.04 | 0.914 | 1.02 | 0.835 | 1.04 | 0.924 | 1.15 | 0.882 |
| RERF-LC-KJ | 0.803 | 0.845 | 0.852 | 0.721 | 0.747 | 0.777 | 0.902 | 0.976 | 0.715 | 0.811 | 0.908 | 1.06 | 1.27 | 0.961 | 1.01 | 0.787 | 0.883 | 0.884 | 0.833 | 0.848 |
| NCI-H520 | 0.929 | 0.767 | 0.779 | 0.679 | 0.63 | 1.08 | 1.15 | 1.2 | 1.11 | 0.891 | 0.345 | 0.457 | 0.56 | 0.263 | 0.309 | 0.602 | 0.876 | 1.15 | 0.859 | 0.736 |
| LCLC-103H | 1.11 | 1.12 | 0.93 | 0.846 | 1.2 |  |  |  |  |  | 0.999 | 1.12 | 0.981 | 1.01 | 1.06 |  |  |  |  |  |
| A549 | 0.491 | 0.451 | 0.391 | 0.432 | 0.456 | 1.37 | 1.44 | 1.28 | 1.28 | 1.04 |  |  |  |  |  | 1.01 | 0.912 | 1.06 | 0.971 | 0.918 |
| SK-MES-1 | 1.05 | 1.03 | 1.03 | 0.913 | 0.573 | 1.34 | 1.34 | 1.3 | 1.14 | 1 |  |  |  |  |  | 0.435 | 0.51 | 0.441 | 0.457 | 0.463 |
| ABC-1 | 0.964 | 0.794 | 0.773 | 0.557 | 0.547 |  |  |  |  |  | 0.325 | 0.243 | 0.348 | 0.315 | 0.29 | 1.52 | 1.49 | 1.42 | 1.13 | 0.997 |
| NCI-H441 | 0.623 | 0.644 | 0.485 | 0.571 | 0.548 |  | 0.644 |  | 0.837 | 0.604 | 0.515 | 0.772 | 0.416 | 0.566 | 0.389 |  |  |  |  |  |
| NCI-H1944 | 1.07 | 1.03 | 1.04 | 0.921 | 0.669 | 1.05 | 1.03 | 1.02 | 1.1 | 1.08 |  |  |  |  |  | 0.69 | 0.853 | 0.883 | 0.67 | 0.788 |
| NCI-H2170 |  |  |  |  |  | 0.616 | 0.683 | 0.601 | 0.561 | 0.465 |  |  |  |  |  | 0.267 | 0.276 | 0.278 | 0.279 | 0.286 |
| ChaGo-K-1 |  |  |  |  |  | 0.642 | 0.833 | 0.909 | 1 | 1.37 | 0.866 | 1.02 | 1.02 | 0.984 | 1.16 |  |  |  |  |  |
| NCI-H358 | 0.757 | 0.684 | 0.732 | 0.65 | 0.588 |  |  |  |  |  |  |  |  |  |  | 0.431 | 0.473 | 0.549 | 0.49 | 0.41 |
| LK-2 | 0.523 | 0.548 | 0.627 | 0.625 | 0.625 |  |  | 0.895 | 0.87 | 0.683 |  |  |  |  |  |  | 0.884 | 0.932 | 1.05 | 0.696 |
| NCI-H1650 |  |  |  |  |  |  | 1.25 | 1.23 | 1.15 | 0.865 | 0.2 | 0.22 | 0.213 | 0.198 | 0.201 |  | 0.872 | 0.811 | 0.72 | 0.54 |
| NCI-H1395 | 1 | 0.865 | 1.04 | 0.598 | 0.665 |  | 1.21 | 1.15 | 1.05 | 1.12 |  |  |  |  |  |  | 0.87 | 1.05 | 0.974 | 0.965 |
| NCI-H661 | 0.486 | 0.472 | 0.363 | 0.457 | 0.362 |  |  |  |  |  | 0.689 | 0.59 | 0.75 | 0.677 | 0.668 | 0.446 | 0.481 | 0.501 | 0.507 | 0.382 |
